Assay: Drug delivery profile: diffusion of loaded drug from foam-film composite to wetted receptor foam piece, HPLC
Format: physicochemical
Conditions: 1x1 cm composite loaded with 100 μL of 261.5 mg/mL solution; on wetted 2x2 cm foam piece; 10 minutes, 37° C.
Experimental: • A foam-film composite made using the process outlined in example 3 was used to evaluate the drug delivery profile of said composite after drug loading. This was done by loading a dry 1×1 cm piece of the composite foam-film with 100 μL of our 261.5 mg/mL solution of dexamethasone disodium phosphate in nanopure water. This piece was then placed on top of a wetted 2×2 cm piece without the flexible film. These two pieces were left in contact for a period of 10 minutes at 37° C. After […] the pieces were separated and the receptor (bottom) piece was placed into a vial. At this point 5 mL of water was added to the vial and the piece was shaken in this new volume of water for 10 minutes. The aqueous layer was then filtered through a 0.45 μm filter and run on a reverse phase HPLC. Using a C18 column and a 12 minute gradient method of water and acetonitrile, it was determined that about 12 mg or about 45% of the loaded DSP diffused to the receptor (bottom) piece.

## C[C@@H]1C[C@H]2[C@@H]3CCC4=CC(=O)C=C[C@]4(C)[C@@]3(F)[C@@H](O)C[C@]2(C)[C@@]1(O)C(=O)COP(=O)([O-])[O-].[Na+].[Na+] [DSP, dexamethasone disodium phosphate]
  amount of DSP diffused to the receptor (bottom) piece: about 12 mg
  percent of the loaded DSP diffused to the receptor (bottom) piece: about 45%
